Source: ChEMBL document CHEMBL1201862, “PubChem BioAssay data set” (2004)
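Assay format: 96-well plates, 48-hour exposure. GI50 is the concentration that inhibits growth by half.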 Activity calls are given as the source filed them. Rule as the data show it: active = GI50 up to about 1.1 µM and inactive = higher.

Key:
Assay in all cases: growth of human tumour cells (NCI), 48 h
HCT-15 = tested on: HCT-15
MOLT-4 = tested on: MOLT-4
SNB-19 = tested on: SNB-19
HT-29 = tested on: HT-29
NCI/ADR-RES = tested on: NCI/ADR-RES
CCRF-CEM = tested on: CCRF-CEM
UO-31 = tested on: UO-31
MCF7 = tested on: MCF7
SK-MEL-2 = tested on: SK-MEL-2
SK-MEL-28 = tested on: SK-MEL-28
M14 = tested on: M14
SF-268 = tested on: SF-268
SK-MEL-5 = tested on: SK-MEL-5
UACC-62 = tested on: UACC-62
ACHN = tested on: ACHN
OVCAR-8 = tested on: OVCAR-8
SR = tested on: SR
TK-10 = tested on: TK-10
CAKI-1 = tested on: CAKI-1
NCI-H23 = tested on: NCI-H23
KM12 = tested on: KM12
U-251 = tested on: U-251
BT-549 = tested on: BT-549
Hs-578T = tested on: Hs-578T
786-0 = tested on: 786-0
MDA-MB-231 = tested on: MDA-MB-231
SW-620 = tested on: SW-620
HOP-92 = tested on: HOP-92
SK-OV-3 = tested on: SK-OV-3
MDA-MB-435 = tested on: MDA-MB-435
NCI-H522 = tested on: NCI-H522
K562 = tested on: K562
A498 = tested on: A498
PC-3 = tested on: PC-3
EKVX = tested on: EKVX
MDA-N = tested on: MDA-N
RPMI-8226 = tested on: RPMI-8226
SF-295 = tested on: SF-295
RXF 393 = tested on: RXF 393
UACC-257 = tested on: UACC-257
HCT-116 = tested on: HCT-116
T47D = tested on: T47D
HCC 2998 = tested on: HCC 2998
A549 = tested on: A549
LOX IMVI = tested on: LOX IMVI
OVCAR-4 = tested on: OVCAR-4
COLO 205 = tested on: COLO 205
OVCAR-5 = tested on: OVCAR-5
SNB-75 = tested on: SNB-75
OVCAR-3 = tested on: OVCAR-3
NCI-H460 = tested on: NCI-H460
DU-145 = tested on: DU-145
Malme-3M = tested on: Malme-3M
IGROV-1 = tested on: IGROV-1
HOP-62 = tested on: HOP-62
SN12C = tested on: SN12C
HL-60 = tested on: HL-60
SF-539 = tested on: SF-539
NCI-H226 = tested on: NCI-H226

[O-]c1c[n+](CC[n+]2cc([O-])on2)no1
GI50 (HCT-15): > 100 µM | GI50 (MOLT-4): > 100 µM (inactive) | GI50 (SNB-19): > 100 µM (inactive) | GI50 (HT-29): > 100 µM (inactive) | GI50 (NCI/ADR-RES): > 100 µM (inactive) | GI50 (CCRF-CEM): > 100 µM (inactive) | GI50 (UO-31): > 100 µM (inactive) | GI50 (MCF7): > 100 µM (inactive) | GI50 (SK-MEL-2): > 100 µM (inactive) | GI50 (SK-MEL-28): > 100 µM (inactive) | GI50 (M14): > 100 µM (inactive) | GI50 (SF-268): > 100 µM (inactive) | GI50 (SK-MEL-5): > 100 µM (inactive) | GI50 (UACC-62): > 100 µM (inactive) | GI50 (ACHN): > 100 µM (inactive) | GI50 (OVCAR-8): > 100 µM (inactive) | GI50 (SR): > 100 µM (inactive) | GI50 (TK-10): > 100 µM (inactive) | GI50 (CAKI-1): > 100 µM (inactive) | GI50 (NCI-H23): > 100 µM (inactive) | GI50 (KM12): > 100 µM (inactive) | GI50 (U-251): > 100 µM (inactive) | GI50 (BT-549): > 100 µM (inactive) | GI50 (Hs-578T): > 100 µM (inactive) | GI50 (786-0): > 100 µM (inactive) | GI50 (MDA-MB-231): > 100 µM (inactive) | GI50 (SW-620): > 100 µM (inactive) | GI50 (HOP-92): > 100 µM (inactive) | GI50 (SK-OV-3): > 100 µM (inactive) | GI50 (MDA-MB-435): > 100 µM (inactive) | GI50 (NCI-H522): > 100 µM (inactive) | GI50 (K562): > 100 µM (inactive) | GI50 (A498): > 100 µM (inactive) | GI50 (PC-3): > 100 µM (inactive) | GI50 (EKVX): > 100 µM (inactive) | GI50 (MDA-N): > 100 µM (inactive) | GI50 (RPMI-8226): > 100 µM (inactive) | GI50 (SF-295): > 100 µM (inactive) | GI50 (RXF 393): > 100 µM (inactive) | GI50 (UACC-257): > 100 µM (inactive) | GI50 (HCT-116): > 100 µM (inactive) | GI50 (T47D): > 100 µM (inactive) | GI50 (HCC 2998): > 100 µM (inactive) | GI50 (A549): > 100 µM (inactive) | GI50 (LOX IMVI): > 100 µM (inactive) | GI50 (OVCAR-4): > 100 µM (inactive) | GI50 (COLO 205): > 100 µM (inactive) | GI50 (OVCAR-5): > 100 µM (inactive) | GI50 (SNB-75): > 100 µM (inactive) | GI50 (OVCAR-3): > 100 µM (inactive) | GI50 (NCI-H460): > 100 µM (inactive) | GI50 (DU-145): > 100 µM (inactive) | GI50 (Malme-3M): > 100 µM (inactive) | GI50 (IGROV-1): > 100 µM (inactive) | GI50 (HOP-62): > 100 µM (inactive) | GI50 (SN12C): > 100 µM (inactive) | GI50 (HL-60): > 100 µM (inactive)

CC[C@H]1C=CCC[C@@]2(C[C@@H]3CC[C@@H]4[C@H](C(=O)OCCCCCCCCCCCCCCCC(=O)O)[C@]5(CCC[C@@H](C)O5)NC(=[N+]34)N2)O1 [CRAMBESCIDIN 657]
GI50 (HCT-15): 0.525 µM | GI50 (MOLT-4): 0.109 µM (active) | GI50 (SNB-19): 0.365 µM (active) | GI50 (HT-29): 0.116 µM (active) | GI50 (NCI/ADR-RES): 4.61 µM (inactive) | GI50 (CCRF-CEM): 0.005 µM (active) | GI50 (UO-31): 0.125 µM (active) | GI50 (MCF7): 0.214 µM (active) | GI50 (SK-MEL-2): 0.127 µM (active) | GI50 (SK-MEL-28): 0.743 µM (active) | GI50 (M14): 0.1 µM (active) | GI50 (SF-268): 0.367 µM (active) | GI50 (SK-MEL-5): 0.104 µM (active) | GI50 (UACC-62): 0.0927 µM (active) | GI50 (ACHN): 0.175 µM (active) | GI50 (OVCAR-8): 0.23 µM (active) | GI50 (SR): 0.0521 µM (active) | GI50 (TK-10): 0.367 µM (active) | GI50 (CAKI-1): 0.182 µM (active) | GI50 (NCI-H23): 0.488 µM (active) | GI50 (KM12): 0.207 µM (active) | GI50 (U-251): 0.183 µM (active) | GI50 (BT-549): 0.314 µM (active) | GI50 (SF-539): 0.272 µM (active) | GI50 (Hs-578T): 0.571 µM (active) | GI50 (786-0): 0.0964 µM (active) | GI50 (NCI-H226): 0.273 µM (active) | GI50 (MDA-MB-231): 0.281 µM (active) | GI50 (SW-620): 0.189 µM (active) | GI50 (HOP-92): 0.153 µM (active) | GI50 (SK-OV-3): 5.38 µM (inactive) | GI50 (MDA-MB-435): 0.141 µM (active) | GI50 (NCI-H522): 0.131 µM (active) | GI50 (K562): 0.121 µM (active) | GI50 (A498): 0.306 µM (active) | GI50 (PC-3): 0.1 µM (active) | GI50 (EKVX): 1.39 µM (inactive) | GI50 (MDA-N): 0.189 µM (active) | GI50 (RPMI-8226): 0.109 µM (active) | GI50 (SF-295): 0.163 µM (active) | GI50 (RXF 393): 0.216 µM (active) | GI50 (UACC-257): 0.12 µM (active) | GI50 (HCT-116): 0.169 µM (active) | GI50 (T47D): 0.32 µM (active) | GI50 (HCC 2998): 0.0973 µM (active) | GI50 (A549): 0.164 µM (active) | GI50 (LOX IMVI): 0.12 µM (active) | GI50 (OVCAR-4): 0.157 µM (active) | GI50 (COLO 205): 0.139 µM (active) | GI50 (OVCAR-5): 0.221 µM (active) | GI50 (OVCAR-3): 0.301 µM (active) | GI50 (NCI-H460): 0.188 µM (active) | GI50 (DU-145): 0.191 µM (active) | GI50 (Malme-3M): 0.153 µM (active) | GI50 (IGROV-1): 0.193 µM (active) | GI50 (HOP-62): 0.367 µM (active) | GI50 (SN12C): 0.418 µM (active) | GI50 (HL-60): 0.151 µM (active)
